Here are results for two compounds from patent US20060148735A1, “Methods for treating, preventing, or reducing cardiac disorders using fadd inhibitors” (priority 2002, published 2006).

For one experiment, the system named is caspase-9. Kind of experiment: Caspase-9 activity (colorimetric assay) in cardiomyocytes. The settings on record: pretreatment or over-expression. In kind it is cell-based, rat. As for the experimental part: (§1) Cardiomyocytes (CM) were prepared from 1-2 day-old rats as described by Matsui et al. (Circulation 100:2373-9, 1999). All CM were incubated in RPMI-1640 containing 5% FBS and 10% horse serum. Neonatal CM grown in 60 mm dishes were infected with Ad.EGFP.β-gal (MOI 20), Ad.FADD-wt, or Ad.FADD-dn (MOI 20), for 24 hours prior to exposure to transient hypoxic conditions, lasting up to 24 hours. To expose CM to transient hypoxia conditions, CM media is changed to N2/CO2-saturated serum-free F10 and cells are placed in an airtight N2-saturated container at 37° C. for up to 24 hours. Hypoxia was confirmed by oxymetry measurements. To examine the role of FADD in inflammatory signaling, cultured neonatal rat CM were stimulated with TNF-α (50 ng/ml) for 4 hours. Nuclear and cytoplasmic extracts were prepared.
(§2) Optionally, apoptosis may also be measured by the protein or gene expression, or alternatively, by the activity of surrogate markers of apoptosis including, for example, caspase activity. Caspase-3, -8, and -9 activity may be examined by using the caspase colorimetric assay kit from R&D Systems according to the manufacturer's protocol. Briefly, cells are scraped, collected, washed with cold PBS, and lysed in cold lysis buffer. […] Release of the pNA cleavage product is quantitated in a microplate reader (Bio-Rad) at a wavelength of 405 nm.

The test system of experiment [1] is rat neonatal cardiomyocytes. As to the kind of experiment: Hypoxia/serum-deprivation-induced cardiomyocyte apoptosis (cell death ELISA, DNA laddering). In kind it is cell-based. As for the experimental part:
as §1
For determination of DNA laddering, cellular DNA is extracted with phenol:chloroform, treated with RNase, ^32P-labeled, and then visualized by electrophoresis in 1.8% agarose gel.
Histone-associated DNA fragments were quantified by cell death ELISA as described in the manufacturer's protocol. DNA fragmentation data were corrected for background and normalized to the result with normoxic cardiomyocytes.
For orientation: In an ELISA, binding on a coated surface is turned into a signal by an enzyme label.

The next experiment relates to NF-κB. Kind of experiment: TNF-α-induced NF-κB activation in neonatal rat cardiomyocytes (p65 translocation, IκB-α phosphorylation, EMSA). The settings on record: 50 μM. In kind it is cell-based. Here is the method: as §1, with “prepared. […]” for “prepared.”
Cells were harvested and nuclear extracts prepared as above. […] Nuclear proteins and oligonucleotide were then separated with native PAGE and detected by autoradiography.
Proteins were separated by SDS-PAGE performed under reducing conditions on 7.5%, 10%, and 12% separation gels with a 4% stacking gel. […] After washing, membranes were incubated with horseradish peroxidase-conjugated secondary antibody and immunoreactive bands detected by chemiluminescence.

For a further experiment, the system named is caspase-8. Kind of experiment: Caspase-8 activity (colorimetric assay) in cardiomyocytes. In kind it is cell-based, rat. The conditions noted are these: listed as zIETD-fink. As for the experimental part:
as §1, §2

“Also recorded” adds a separate entry of the source. Where a SMILES comes first, the peptide text is derived from it. The star is where a group is joined. Cbz = O=C(OCc1ccccc1)*; CH2F = FC*

Consider `CC[C@H](C)[C@H](NC(=O)OCc1ccccc1)C(=O)N[C@@H](CCC(=O)OC)C(=O)N[C@H](C(=O)N[C@@H](CC(=O)OC)C(=O)CF)[C@@H](C)O` [zIETD-fmk] (Cbz-IE(OMe)TD(OMe)-CH2F), for which, in the experiment with caspase-9, the “hypoxia/SD-induced activation of caspase-9” value was “completely inhibited”. In addition, in experiment [1] (4 h hypoxia/SD), the “CM apoptosis in response to hypoxia/SD” value is listed as “completely inhibited”. In addition, in the experiment on NF-κB, the “reversal of the FADD effect on NF-κB” value is on record as “failed to reverse”. For the same compound, the “hypoxia/SD-induced caspase-8 activation” value in the experiment with caspase-8 is listed as “completely inhibited; also recorded: effectively blocked”.
As for `COC(=O)C[C@H](NC(=O)[C@H](C)NC(=O)[C@@H](NC(=O)OCc1ccccc1)C(C)C)C(=O)CF` [zVAD-fmk] (Cbz-Val-Ala-Asp(OMe)-CH2F), the “hypoxia/SD-induced apoptosis (ELISA for histone-associated DNA fragmentation, DNA laddering)” value in experiment [1] (concentrations ranging from 50 to 100 μM) is listed as “inhibited”.
